Test results: PubChem BioAssay (NCI)
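1) Cells in 96-well plates. 2) Compound, 48 h, 5 concentrations. 3) Linear interpolation between surrounding doses. 4) Unreached endpoint = highest concentration. TGI denotes the concentration required for complete inhibition of growth.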

Tests used:
Assay in all cases: NCI-60 cell line screen, 48 h
NCI-H522 lung = test system: NCI-H522 lung
HOP-92 NSCLC = test system: HOP-92 NSCLC
U251 CNS = test system: U251 CNS
ACHN renal = test system: ACHN renal
SK-OV-3 ovarian = test system: SK-OV-3 ovarian
SK-MEL-2 melanoma = test system: SK-MEL-2 melanoma
A549 NSCLC = test system: A549 NSCLC
MDA-MB-231 breast = test system: MDA-MB-231 breast
786-0 renal = test system: 786-0 renal
MDA-N = test system: MDA-N
SW-620 colon = test system: SW-620 colon
SF-268 CNS = test system: SF-268 CNS
SNB-75 CNS = test system: SNB-75 CNS
KM12 colon = test system: KM12 colon
SF-295 CNS = test system: SF-295 CNS
HCC-2998 colon = test system: HCC-2998 colon
HCT-15 colon = test system: HCT-15 colon
PC-3 prostate = test system: PC-3 prostate
IGROV1 ovarian = test system: IGROV1 ovarian
NCI/ADR-RES ovarian = test system: NCI/ADR-RES ovarian
HL-60(TB) leukemia = test system: HL-60(TB) leukemia
UO-31 renal = test system: UO-31 renal
SF-539 CNS = test system: SF-539 CNS
CAKI-1 renal = test system: CAKI-1 renal
MCF7 breast = test system: MCF7 breast
SNB-19 CNS = test system: SNB-19 CNS
HT29 colon = test system: HT29 colon
SN12C renal = test system: SN12C renal
SK-MEL-28 melanoma = test system: SK-MEL-28 melanoma
MOLT-4 leukemia = test system: MOLT-4 leukemia
EKVX NSCLC = test system: EKVX NSCLC
HOP-62 NSCLC = test system: HOP-62 NSCLC
DU-145 prostate = test system: DU-145 prostate
HS 578T breast = test system: HS 578T breast
COLO 205 colon = test system: COLO 205 colon
OVCAR-5 ovarian = test system: OVCAR-5 ovarian
A498 renal = test system: A498 renal
LOX IMVI melanoma = test system: LOX IMVI melanoma
UACC-257 melanoma = test system: UACC-257 melanoma
TK-10 renal = test system: TK-10 renal
OVCAR-8 ovarian = test system: OVCAR-8 ovarian
NCI-H226 lung = test system: NCI-H226 lung
OVCAR-4 ovarian = test system: OVCAR-4 ovarian
CCRF-CEM leukemia = test system: CCRF-CEM leukemia
RXF 393 renal = test system: RXF 393 renal
SK-MEL-5 melanoma = test system: SK-MEL-5 melanoma
MALME-3M melanoma = test system: MALME-3M melanoma
HCT-116 colon = test system: HCT-116 colon
UACC-62 melanoma = test system: UACC-62 melanoma
M14 melanoma = test system: M14 melanoma
K-562 leukemia = test system: K-562 leukemia
NCI-H23 lung = test system: NCI-H23 lung
MDA-MB-435 = test system: MDA-MB-435
BT-549 breast = test system: BT-549 breast
OVCAR-3 ovarian = test system: OVCAR-3 ovarian
NCI-H460 lung = test system: NCI-H460 lung
RPMI-8226 leukemia = test system: RPMI-8226 leukemia
T-47D breast = test system: T-47D breast
SR leukemia = test system: SR leukemia

Measured: TGI

O=C(Nc1cccc(C(=O)NCCCO)c1)/C(=C/c1ccccc1)NC(=O)c1ccccc1
not listed: SR leukemia
> 100 µM: all other assays above

O=C(CN=C(CN(c1ccccc1)c1ccccc1)Oc1ccc(Cl)cc1Cl)n1ccnc1
not listed: NCI-H522 lung | HCC-2998 colon | HL-60(TB) leukemia | CAKI-1 renal
> 100 µM: all other assays above
